According to the supplement of paper PMC10307832:

Tests used:
Assay in all cases: relative viability (nuclei count vs DMSO), 5 days (fraction); higher = more cells survive
Selumetinib + Lapatinib = compound: Cn1cnc2c(F)c(Nc3ccc(Br)cc3Cl)c(C(=O)NOCCO)cc21 [Selumetinib] + CS(=O)(=O)CCNCc1ccc(-c2ccc3ncnc(Nc4ccc(OCc5cccc(F)c5)c(Cl)c4)c3c2)o1 [Lapatinib] (partner 2 µM)
In short: (§1)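 Lung cancer cell lines were pin-tool dosed in 1536-well plates on the day after seeding, with either a lone drug or a fixed anchor-drug dose plus five library-drug doses (not always all listed) in √10 steps. Nuclei were counted on 4× images after 5 days. Relative viability is the ratio of treated-well to vehicle-well nuclei counts, with each value a median of duplicate plates.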

Venetoclax + Pemetrexed = compound: CC1(C)CCC(CN2CCN(c3ccc(C(=O)NS(=O)(=O)c4ccc(NCC5CCOCC5)c([N+](=O)[O-])c4)c(Oc4cnc5[nH]ccc5c4)c3)CC2)=C(c2ccc(Cl)cc2)C1 [Venetoclax] + Nc1nc2[nH]cc(CCc3ccc(C(=O)N[C@@H](CCC(=O)O)C(=O)O)cc3)c2c(=O)[nH]1 [Pemetrexed] (partner 0.2 µM)
In short: as §1

Venetoclax + Dasatinib = compound: CC1(C)CCC(CN2CCN(c3ccc(C(=O)NS(=O)(=O)c4ccc(NCC5CCOCC5)c([N+](=O)[O-])c4)c(Oc4cnc5[nH]ccc5c4)c3)CC2)=C(c2ccc(Cl)cc2)C1 [Venetoclax] + Cc1nc(Nc2ncc(C(=O)Nc3c(C)cccc3Cl)s2)cc(N2CCN(CCO)CC2)n1 [Dasatinib] (partner 0.075 µM)
In short: as §1

Venetoclax + Linsitinib = compound: CC1(C)CCC(CN2CCN(c3ccc(C(=O)NS(=O)(=O)c4ccc(NCC5CCOCC5)c([N+](=O)[O-])c4)c(Oc4cnc5[nH]ccc5c4)c3)CC2)=C(c2ccc(Cl)cc2)C1 [Venetoclax] + C[C@]1(O)C[C@@H](c2nc(-c3ccc4ccc(-c5ccccc5)nc4c3)c3c(N)nccn32)C1 [Linsitinib] (partner 1 µM)
In short: as §1

| Cell Line | relative viability (Selumetinib + Lapatinib; first compound 0.02 µM) | relative viability (Selumetinib + Lapatinib; first compound 0.06325 µM) | relative viability (Selumetinib + Lapatinib; first compound 0.2 µM) | relative viability (Selumetinib + Lapatinib; first compound 0.6325 µM) | relative viability (Venetoclax + Pemetrexed; first compound 0.01 µM) | relative viability (Venetoclax + Pemetrexed; first compound 0.03162 µM) | relative viability (Venetoclax + Pemetrexed; first compound 0.1 µM) | relative viability (Venetoclax + Pemetrexed; first compound 0.3162 µM) | relative viability (Venetoclax + Pemetrexed; first compound 1 µM) | relative viability (Venetoclax + Dasatinib; first compound 0.01 µM) | relative viability (Venetoclax + Dasatinib; first compound 0.03162 µM) | relative viability (Venetoclax + Dasatinib; first compound 0.1 µM) | relative viability (Venetoclax + Dasatinib; first compound 0.3162 µM) | relative viability (Venetoclax + Dasatinib; first compound 1 µM) | relative viability (Venetoclax + Linsitinib; first compound 0.01 µM) | relative viability (Venetoclax + Linsitinib; first compound 0.03162 µM) | relative viability (Venetoclax + Linsitinib; first compound 0.1 µM) | relative viability (Venetoclax + Linsitinib; first compound 0.3162 µM) | relative viability (Venetoclax + Linsitinib; first compound 1 µM) |
| --- | --- | --- | --- | --- | --- | --- | --- | --- | --- | --- | --- | --- | --- | --- | --- | --- | --- | --- | --- |
| NCI-H23 | 1.24 | 1.02 | 0.825 | 0.957 | 0.671 | 0.747 | 0.597 | 0.76 | 0.588 | 0.664 | 0.781 | 0.636 | 0.706 | 0.628 | 0.646 | 0.648 | 0.527 | 0.467 | 0.533 |
| NCI-H441 |  |  |  |  | 0.274 | 0.271 | 0.243 | 0.253 | 0.244 | 0.685 | 0.667 | 0.482 | 0.546 | 0.596 | 0.445 | 0.716 | 0.568 | 0.482 | 0.511 |
| NCI-H2009 | 0.786 | 0.567 | 0.596 | 0.375 | 0.989 | 1.04 | 1.05 | 1 | 0.961 | 0.37 | 0.315 | 0.283 | 0.302 | 0.266 | 1.2 | 1.14 | 1.09 | 1.09 | 1.11 |
| NCI-H1944 | 0.812 | 0.666 | 0.63 | 0.634 | 0.669 | 0.592 | 0.571 | 0.607 | 0.589 | 0.283 | 0.235 | 0.201 | 0.222 | 0.227 | 1.4 | 1.28 | 1.15 | 1.16 | 1.23 |
| NCI-H1299 | 1.06 | 0.959 | 1.02 | 0.812 |  |  |  |  |  |  |  |  |  |  | 0.987 | 1.02 | 1.06 | 0.926 | 0.936 |
| EPLC-272H | 0.801 | 0.722 | 0.558 | 0.643 | 0.361 | 0.316 | 0.356 | 0.412 | 0.36 | 0.399 | 0.379 | 0.352 | 0.36 | 0.346 |  | 1.31 | 1.06 | 1.45 | 1.07 |
| NCI-H3122 | 0.882 | 0.805 | 0.801 | 0.754 | 0.179 | 0.2 | 0.199 | 0.188 | 0.198 | 0.811 | 0.757 | 0.885 | 0.786 | 0.817 | 1.08 | 1.02 | 0.969 | 1.06 | 1.06 |
| NCI-H2085 | 0.75 | 0.706 | 0.713 | 0.68 | 0.756 | 0.948 | 0.86 | 0.823 | 0.798 | 0.273 | 0.238 | 0.282 | 0.243 | 0.22 | 0.881 | 0.782 | 0.853 | 0.909 | 0.853 |
| HCC-366 | 1.06 | 0.914 | 0.872 | 0.612 | 0.16 | 0.16 | 0.172 | 0.186 | 0.197 | 0.618 | 0.592 | 0.523 | 0.56 | 0.54 | 0.659 | 0.657 | 0.605 | 0.779 | 0.549 |
| ABC-1 | 1.22 | 1.27 | 0.967 | 1.03 |  |  |  |  |  | 0.665 | 0.655 | 0.445 | 0.658 | 0.604 | 0.7 | 0.878 | 0.697 | 0.81 | 0.813 |
| NCI-H727 | 0.562 | 0.443 | 0.349 | 0.325 |  |  |  |  |  | 0.421 | 0.357 | 0.35 | 0.415 | 0.447 | 0.334 | 0.344 | 0.201 | 0.293 | 0.296 |
| LCLC-103H |  |  |  |  | 0.447 | 0.432 | 0.448 | 0.43 | 0.447 | 0.48 | 0.439 | 0.479 | 0.463 | 0.45 | 1.1 | 1.24 | 1.16 | 1.13 | 0.989 |
| IA-LM | 0.395 | 0.182 | 0.111 | 0.108 |  |  |  |  |  |  |  |  |  |  | 0.51 | 0.605 | 0.71 | 0.418 | 0.403 |
| ChaGo-K-1 |  |  |  |  | 0.257 | 0.26 | 0.255 | 0.26 | 0.263 | 0.722 | 0.601 | 0.59 | 0.598 | 0.547 |  |  |  |  |  |
| NCI-H1650 | 0.704 | 0.639 | 0.704 | 0.721 | 0.343 | 0.361 | 0.405 | 0.431 | 0.356 | 0.362 | 0.352 | 0.29 | 0.324 | 0.305 |  |  |  |  |  |
| NCI-H1648 |  |  |  |  |  | 0.774 | 0.64 | 0.626 | 0.718 |  |  |  |  |  |  |  |  |  |  |
| NCI-H1703 | 1.19 | 1.17 | 1.17 | 0.994 |  |  |  |  |  |  |  |  |  |  | 0.549 | 0.652 | 0.81 | 0.756 | 0.755 |
| A549 | 0.84 | 0.731 | 0.749 | 0.5 |  |  |  |  |  |  |  |  |  |  | 0.586 | 0.597 | 0.524 | 0.568 | 0.558 |
| NCI-H522 |  |  |  |  | 1.13 | 1.01 | 0.879 | 1.19 | 0.759 | 0.938 | 0.951 | 0.805 | 0.8 | 0.848 |  |  |  |  |  |
| NCI-H2170 | 0.265 | 0.267 | 0.274 | 0.247 | 0.25 | 0.278 | 0.259 | 0.259 | 0.253 | 0.569 | 0.508 | 0.373 | 0.556 | 0.502 |  |  |  |  |  |
| NCI-H1623 |  |  |  |  |  |  |  |  |  | 0.565 | 0.595 | 0.534 | 0.515 | 0.508 |  |  |  |  |  |
| SW 900 |  |  |  |  | 0.478 | 0.51 | 0.465 | 0.499 | 0.489 | 0.544 | 0.625 | 0.645 | 0.855 | 0.434 |  |  |  |  |  |
| EBC-1 | 0.203 | 0.201 | 0.239 | 0.199 |  |  |  |  |  |  |  |  |  |  | 0.902 | 0.963 | 0.912 | 0.837 | 0.786 |
